Tested on: Hela cancer cells
Assay: Toxicity evaluation: cell density of Hela cancer cells cultured with FA (folic acid)-modified particles
Format: cell-based
Conditions: FA-modified particles on Hela cells, FIG. 9
Method: Particles of Examples 1 to 3 or Comparative Examples 1 to 2 were subjected to toxicity evaluation by cancer cell imaging and fluorescence intensity measurement by the following methods.
To 250 mg of the particles of Examples 1 to 3 or Comparative Examples 1 to 2, 12 ml of an HCl aqueous solution (pH=2) was added, and ultrasonic treatment was carried out. Next, a solution containing 0.78 ml (3.3 mmol) of 3-aminopropyltriethoxysilane (APTES) in 5 mL of ethanol was prepared and added to the ultrasonic-treated solution to obtain a mixed solution. The mixed solution was stirred for 20 hours at 40° C. (pH<6.5). […]
After the above cells were cultured, a polystyrene dish (TCPS) including cells was washed twice with 1 ml of phosphate buffered saline (PBS), then FA (folic acid)-modified particles which had not taken up by the cells were removed, 0.1 ml of 0.05% Trypsin-EDTA was placed in a TCPS including cells, followed by allowing to stand still in a CO2 incubator for 12 minutes, and cells were peeled off from TCPS. […] Thereafter, the supernatant was discarded, 20 ml of medium was added to the tube, pipetting was carried out about 20 times, 1 ml was aliquoted into 15 ml-tubes, the cell suspension was placed into a disposable hemocytometer using a micropipette outside a clean bench, the cell number was confirmed under a microscope, and the average value (cell/cm^2) was calculated. […]

Q: Which “cell proliferation behavior (average cell density)” value (3, 12, 24, 36 and 48 hours after spraying) does the source give for `O.O.O.O.O.O.[Cl][Eu]([Cl])[Cl]` [Comparative Example 2, Europium chloride hexahydrate] here?
A: a normal cell proliferation behavior was not observed

Q: What about the cytotoxicity of the same compound?
A: cytotoxicity due to the elution
